Where “and” joins values, the source holds several entries; their conditions need not be identical. Equal values may be shown once.
Key:
[1] = Proteinuria in patients on anti-VEGF therapy; type: in vivo, human
Experimental: The following was performed to determine whether podocyturia is present in patients who, while undergoing anti-VEGF therapy, develop proteinuria (Table 1). In addition, urinary podocyte excretion was compared among patients on anti-VEGF therapy with proteinuria ranging from 101 to 9720 mg/d (Table 1).

urinary podocytes = assay: Podocyturia assay: urinary cells stained for podocin immunoreactivity; type: in vivo, human; conditions: for Cells/HPF (urinary podocytes): 400 × high power field, individual cancer patients on anti-VEGF therapy, Table 1
Experimental: A random urine sample (25-50 mL each) was centrifuged for 8 minutes at 700 g at room temperature. The pellets were rinsed twice with […]. Next, the pellets were resuspended in Dulbecco's modified eagle's medium (DMEM) F-12 medium with 10% fetal bovine serum that was supplemented with antibiotics for the prevention of bacterial contamination. A one-milliliter aliquot was plated on a collagen-coated tissue culture slide, which was followed by overnight incubation at 37° C. in 5% CO2. The next day, the media were removed, followed by two phosphate-buffered saline solution washes. The slide was fixed with 1 mL of ice cold methanol for 10 minutes at −20° C. The slide was incubated with antibodies to podocin (dilution, 1:200). After being washed with phosphate-buffered saline solution, a secondary fluorescein isothiocyanate-labeled antibody was added at a dilution of 1:40 for 30 minutes. The sediment was counterstained with Hoechst nuclear stain to facilitate differentiation of whole cells from cell fragments. Coverslips were mounted with Vectashield (Vector Labs, Burlington, Calif.), and the slides were viewed with a fluorescence microscope (Leica, Germany). Nucleated, positive-staining cells were considered to be podocytes. A renal pathologist, who was blinded to the clinical diagnosis and laboratory findings, evaluated each sample to determine the number of cells that were present and the percentage of cells that were stained for podocin.

[2] = Renal function (creatinine, GFR) in patients on anti-VEGF therapy; conditions: for GFR: individual cancer patients on anti-VEGF therapy, Table 1
[3] = system: renal cell carcinoma, clear cell type; assay: Clinical course of a renal cell carcinoma patient on sunitinib therapy; type: in vivo, human; conditions: person, four months into therapy
Text: They subsequently underwent a right radical nephrectomy and retroperitoneal lymphadenectomy.

| Proteinuria ([1]; human, in vivo) | predicted 24 hour protein ([1]; human, in vivo) | protein in 24 hours ([1]; human, in vivo) | kidney function, as per creatinine measurements ([2]; after the regimen was changed and the dose was decreased) | creatinine ([2]; person, after seven months of therapy) | peak creatinine ([2]; person, four months into therapy) | Compound | Proteinuria (dipstick) ([1]; human, in vivo) | Cells/HPF (urinary podocytes) (urinary podocytes) | Proteinuria ([1]; individual cancer patients on anti-VEGF therapy, Table 1) | GFR [2] | presence of urinary podocytes (urinary podocytes; person, after seven months of therapy, FIG. 1) | Additional side effects [3] |
| --- | --- | --- | --- | --- | --- | --- | --- | --- | --- | --- | --- | --- |
|  |  |  |  |  |  | bevacizumab | 1 + dipstick |  |  |  |  |  |
|  |  |  |  |  |  | CNC(=O)c1cc(Oc2ccc(NC(=O)Nc3ccc(Cl)c(C(F)(F)F)c3)cc2)ccn1 [S/nib, sorafenib] |  | >9 Cells/HPF and 1 Cells/HPF | 9720 mg/day and 101 mg/day | 70 and 39 |  |  |
| 2112 mg/day | 931 mg | 467 mg | improved | 1.3 | 1.5 | CCN(CC)CCNC(=O)c1c(C)[nH]c(/C=C2\C(=O)Nc3ccc(F)cc32)c1C [Sunitinib] |  | >3 Cells/HPF |  | 43 | presence of urinary podocytes was confirmed | hypertension, hand and foot syndrome, and drug-induced hypothyroidism |

Source: patent publication US10336822B2, “Early marker of proteinuria in patients treated with an anti-VEGF treatment” (Mayo Foundation for Medical Education and Research, priority 2009, dated 2019)
